In the kinase profiling compilation of Christmann-Franck et al. (2016):
Each block holds one compound with its values, some of them ahead of it.

Assays:
Experiment in all cases: radiometric filter-binding kinase assay
[1] = target: SRC (human) (UniProt P12931)
[2] = target: NUAK1 (human) (UniProt O60285)
[3] = target: EPHB3 (human) (UniProt P54753)
[4] = target: MAPK8 (human) (UniProt P45983)
[5] = target: DYRK3 (human) (UniProt O43781)
[6] = target: CaMK1 (human) (UniProt Q14012)
[7] = target: CHEK1 (human) (UniProt O14757)
[8] = target: AURKB (human) (UniProt Q96GD4)
[9] = target: EPHA2 (human) (UniProt P29317)
EPHA2 (human), sequence (P29317 whole entry, looked up): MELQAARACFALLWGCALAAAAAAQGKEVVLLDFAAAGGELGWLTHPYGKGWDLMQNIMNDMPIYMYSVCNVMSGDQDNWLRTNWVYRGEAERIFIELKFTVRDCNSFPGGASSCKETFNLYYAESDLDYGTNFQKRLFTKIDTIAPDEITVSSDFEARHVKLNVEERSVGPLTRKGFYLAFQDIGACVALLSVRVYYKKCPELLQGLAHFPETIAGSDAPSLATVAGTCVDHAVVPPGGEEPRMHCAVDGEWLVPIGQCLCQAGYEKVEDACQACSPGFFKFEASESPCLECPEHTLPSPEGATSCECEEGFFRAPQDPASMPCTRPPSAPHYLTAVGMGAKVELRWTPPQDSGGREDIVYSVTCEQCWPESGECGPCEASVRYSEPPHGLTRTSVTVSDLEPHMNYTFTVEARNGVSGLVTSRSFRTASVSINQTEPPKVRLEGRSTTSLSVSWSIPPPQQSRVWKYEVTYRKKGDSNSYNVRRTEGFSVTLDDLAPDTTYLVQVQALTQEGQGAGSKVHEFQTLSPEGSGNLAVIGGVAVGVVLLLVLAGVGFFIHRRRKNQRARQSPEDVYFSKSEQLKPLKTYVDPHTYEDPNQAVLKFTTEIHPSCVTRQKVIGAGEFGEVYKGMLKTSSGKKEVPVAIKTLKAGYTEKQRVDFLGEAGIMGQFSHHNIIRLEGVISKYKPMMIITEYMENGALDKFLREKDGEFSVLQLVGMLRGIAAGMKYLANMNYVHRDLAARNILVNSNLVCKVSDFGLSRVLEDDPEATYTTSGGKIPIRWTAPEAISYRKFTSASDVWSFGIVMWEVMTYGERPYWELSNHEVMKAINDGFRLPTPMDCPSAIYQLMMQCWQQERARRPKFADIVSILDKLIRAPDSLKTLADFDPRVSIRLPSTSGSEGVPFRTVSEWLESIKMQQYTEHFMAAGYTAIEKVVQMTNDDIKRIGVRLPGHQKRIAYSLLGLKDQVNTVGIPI

[10] = target: GCK (human) (UniProt Q12851)
[11] = tested on: PAK2 (human), Q13177 [T402E]
PAK2 (human), Q13177 [T402E], sequence (Q13177 whole entry T402E, looked up): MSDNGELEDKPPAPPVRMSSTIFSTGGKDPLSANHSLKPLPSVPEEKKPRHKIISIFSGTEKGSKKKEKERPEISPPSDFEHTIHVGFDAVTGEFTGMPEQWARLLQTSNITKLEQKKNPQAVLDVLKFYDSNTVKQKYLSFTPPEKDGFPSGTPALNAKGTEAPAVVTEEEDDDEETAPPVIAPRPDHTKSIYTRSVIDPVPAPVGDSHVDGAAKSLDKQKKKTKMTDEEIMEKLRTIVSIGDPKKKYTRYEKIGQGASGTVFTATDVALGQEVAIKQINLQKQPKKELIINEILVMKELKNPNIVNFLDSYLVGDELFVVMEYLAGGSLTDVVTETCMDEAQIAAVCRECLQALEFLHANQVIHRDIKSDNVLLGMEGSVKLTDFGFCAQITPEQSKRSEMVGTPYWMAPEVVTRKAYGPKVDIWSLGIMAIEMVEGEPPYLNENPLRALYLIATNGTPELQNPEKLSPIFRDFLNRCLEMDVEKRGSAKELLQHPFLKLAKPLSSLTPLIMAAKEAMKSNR

[12] = target: RPS6KA3 KD1 KD2 (human) (UniProt P51812)
RPS6KA3 KD1 KD2 (human), sequence (P51812 whole entry, looked up): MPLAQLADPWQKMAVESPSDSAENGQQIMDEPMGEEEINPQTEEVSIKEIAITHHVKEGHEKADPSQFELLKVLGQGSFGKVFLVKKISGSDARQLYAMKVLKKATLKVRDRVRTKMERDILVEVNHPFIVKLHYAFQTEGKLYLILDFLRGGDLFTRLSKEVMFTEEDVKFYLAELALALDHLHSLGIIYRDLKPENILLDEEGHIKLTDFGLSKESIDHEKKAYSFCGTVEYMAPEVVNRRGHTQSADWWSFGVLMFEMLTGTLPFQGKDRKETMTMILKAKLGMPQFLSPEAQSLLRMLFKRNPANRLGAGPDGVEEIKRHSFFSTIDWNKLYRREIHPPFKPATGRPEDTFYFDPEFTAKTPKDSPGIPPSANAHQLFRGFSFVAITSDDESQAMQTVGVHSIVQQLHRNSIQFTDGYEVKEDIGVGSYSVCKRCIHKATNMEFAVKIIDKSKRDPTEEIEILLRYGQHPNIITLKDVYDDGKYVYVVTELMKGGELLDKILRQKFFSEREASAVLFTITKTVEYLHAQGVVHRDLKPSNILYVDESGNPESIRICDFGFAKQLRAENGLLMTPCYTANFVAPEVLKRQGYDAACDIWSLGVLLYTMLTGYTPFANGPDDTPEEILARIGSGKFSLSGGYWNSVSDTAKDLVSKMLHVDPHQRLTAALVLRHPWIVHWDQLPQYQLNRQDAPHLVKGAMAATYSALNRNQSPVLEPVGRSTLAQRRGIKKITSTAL

[13] = target: CDK2 CCNA2 (human) (UniProt P20248+P24941)
[14] = target: MARK2 (human) (UniProt Q7KZI7)
[15] = tested on: ROCK2 (rat); conditions: accession and sequence are those of the human protein
[16] = target: CSK (human) (UniProt P41240)
[17] = target: IKBKB (human) (UniProt O14920)
[18] = target: MST4 (human) (UniProt Q9P289)
[19] = target: PKN2 (human) (UniProt Q16513)
[20] = target: CHEK2 (human) (UniProt O96017)
CHEK2 (human), sequence (O96017 whole entry, looked up): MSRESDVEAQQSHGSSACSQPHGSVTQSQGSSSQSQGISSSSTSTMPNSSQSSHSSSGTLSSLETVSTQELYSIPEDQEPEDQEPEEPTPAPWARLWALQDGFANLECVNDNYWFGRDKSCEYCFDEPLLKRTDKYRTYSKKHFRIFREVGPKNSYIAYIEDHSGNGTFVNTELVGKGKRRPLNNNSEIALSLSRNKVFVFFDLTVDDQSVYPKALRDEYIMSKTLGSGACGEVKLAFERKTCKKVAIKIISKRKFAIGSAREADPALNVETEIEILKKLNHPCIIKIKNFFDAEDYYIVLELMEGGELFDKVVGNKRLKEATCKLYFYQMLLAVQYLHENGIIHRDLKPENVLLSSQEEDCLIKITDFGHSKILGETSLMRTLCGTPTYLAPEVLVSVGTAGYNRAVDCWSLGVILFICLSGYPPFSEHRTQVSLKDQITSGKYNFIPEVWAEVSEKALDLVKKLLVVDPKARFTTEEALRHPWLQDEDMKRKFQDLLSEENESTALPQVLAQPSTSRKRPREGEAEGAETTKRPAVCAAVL

[21] = target: PAK4 (human) (UniProt O96013)
PAK4 (human), sequence (O96013 whole entry, looked up): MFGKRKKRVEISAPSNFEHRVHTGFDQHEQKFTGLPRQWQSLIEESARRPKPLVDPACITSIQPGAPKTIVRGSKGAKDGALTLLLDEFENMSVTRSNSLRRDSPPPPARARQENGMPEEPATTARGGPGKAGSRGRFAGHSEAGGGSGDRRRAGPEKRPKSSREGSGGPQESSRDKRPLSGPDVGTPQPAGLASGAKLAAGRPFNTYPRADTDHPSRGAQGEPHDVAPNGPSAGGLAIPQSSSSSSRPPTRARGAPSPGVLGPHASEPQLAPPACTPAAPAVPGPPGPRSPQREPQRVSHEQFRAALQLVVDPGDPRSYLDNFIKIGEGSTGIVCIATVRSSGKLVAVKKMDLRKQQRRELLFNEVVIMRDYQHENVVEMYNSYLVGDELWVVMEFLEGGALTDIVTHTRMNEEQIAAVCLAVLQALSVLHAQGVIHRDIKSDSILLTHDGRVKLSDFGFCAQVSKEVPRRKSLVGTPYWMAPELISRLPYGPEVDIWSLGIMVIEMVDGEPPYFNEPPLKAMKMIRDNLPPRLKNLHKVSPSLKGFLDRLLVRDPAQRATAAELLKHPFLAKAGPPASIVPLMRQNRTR

[22] = target: PAK6 (human) (UniProt Q9NQU5)
PAK6 (human), sequence (Q9NQU5 whole entry, looked up): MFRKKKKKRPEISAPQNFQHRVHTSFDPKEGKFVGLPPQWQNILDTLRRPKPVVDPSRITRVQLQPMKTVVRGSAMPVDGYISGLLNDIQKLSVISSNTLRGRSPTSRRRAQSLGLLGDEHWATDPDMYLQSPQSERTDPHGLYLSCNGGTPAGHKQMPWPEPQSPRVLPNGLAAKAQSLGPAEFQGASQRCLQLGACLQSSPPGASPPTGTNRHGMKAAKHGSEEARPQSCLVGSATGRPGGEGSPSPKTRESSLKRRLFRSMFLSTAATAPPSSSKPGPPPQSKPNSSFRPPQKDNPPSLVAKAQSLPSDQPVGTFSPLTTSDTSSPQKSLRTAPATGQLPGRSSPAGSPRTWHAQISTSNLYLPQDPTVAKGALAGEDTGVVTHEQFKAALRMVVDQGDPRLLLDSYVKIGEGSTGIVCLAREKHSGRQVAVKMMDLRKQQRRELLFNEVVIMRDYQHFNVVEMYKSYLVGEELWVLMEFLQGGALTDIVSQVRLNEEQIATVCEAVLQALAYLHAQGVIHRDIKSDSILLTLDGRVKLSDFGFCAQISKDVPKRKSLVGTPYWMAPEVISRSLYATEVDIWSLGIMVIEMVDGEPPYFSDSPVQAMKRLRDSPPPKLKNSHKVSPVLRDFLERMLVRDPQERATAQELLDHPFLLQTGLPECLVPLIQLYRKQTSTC

[23] = tested on: LCK (mouse); conditions: accession and sequence are those of the human protein
[24] = target: TTK (human) (UniProt P33981)
TTK (human), sequence (P33981 whole entry, looked up): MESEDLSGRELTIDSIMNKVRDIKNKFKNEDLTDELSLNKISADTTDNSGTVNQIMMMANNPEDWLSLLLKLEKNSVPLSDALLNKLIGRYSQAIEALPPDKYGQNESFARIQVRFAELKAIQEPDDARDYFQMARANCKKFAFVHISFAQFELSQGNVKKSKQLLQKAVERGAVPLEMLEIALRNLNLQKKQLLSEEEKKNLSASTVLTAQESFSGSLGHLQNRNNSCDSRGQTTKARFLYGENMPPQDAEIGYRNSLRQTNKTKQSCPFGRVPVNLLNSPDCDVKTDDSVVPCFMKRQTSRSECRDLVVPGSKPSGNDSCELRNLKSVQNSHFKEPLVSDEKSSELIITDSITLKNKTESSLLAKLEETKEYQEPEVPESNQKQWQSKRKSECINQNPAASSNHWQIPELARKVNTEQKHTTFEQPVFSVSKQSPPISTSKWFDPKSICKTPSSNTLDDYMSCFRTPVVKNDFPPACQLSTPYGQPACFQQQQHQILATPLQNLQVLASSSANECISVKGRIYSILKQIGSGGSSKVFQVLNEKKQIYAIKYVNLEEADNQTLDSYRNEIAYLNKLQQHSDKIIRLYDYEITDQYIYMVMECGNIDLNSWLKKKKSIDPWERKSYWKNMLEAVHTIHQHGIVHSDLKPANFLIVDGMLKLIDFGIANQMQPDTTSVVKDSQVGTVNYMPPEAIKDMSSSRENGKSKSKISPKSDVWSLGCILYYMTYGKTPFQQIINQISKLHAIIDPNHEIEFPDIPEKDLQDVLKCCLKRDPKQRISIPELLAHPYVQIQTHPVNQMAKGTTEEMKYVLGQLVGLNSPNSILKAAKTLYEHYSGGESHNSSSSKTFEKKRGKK

[25] = target: MYLK (human) (UniProt Q15746)
[26] = target: MAP2K1 (human) (UniProt Q02750)
[27] = target: MAPK10 (human) (UniProt P53779)
[28] = target: TBK1 (human) (UniProt Q9UHD2)
[29] = target: MINK1 (human) (UniProt Q8N4C8)
[30] = tested on: AKT1 (human), P31749 [S473D]
[31] = target: MAP3K11 (human) (UniProt Q16584)

residual activity ([1]; compound 1.0 µM): 98%
residual activity ([1]; compound 10.0 µM): 110%
residual activity ([2]; compound 1.0 µM): 108%
residual activity ([2]; compound 10.0 µM): 101%
residual activity ([3]; compound 1.0 µM): 112%
residual activity ([3]; compound 10.0 µM): 104%
residual activity ([4]; compound 1.0 µM): 85%
residual activity ([4]; compound 10.0 µM): 79%
residual activity ([5]; compound 1.0 µM): 90%
residual activity ([5]; compound 10.0 µM): 82%
residual activity ([6]; compound 1.0 µM): 94%
residual activity ([6]; compound 10.0 µM): 94%
residual activity ([7]; compound 1.0 µM): 109%
residual activity ([7]; compound 10.0 µM): 103%
residual activity ([8]; compound 1.0 µM): 104%
residual activity ([8]; compound 10.0 µM): 106%
residual activity ([9]; compound 1.0 µM): 102%
residual activity ([9]; compound 10.0 µM): 96%
residual activity ([10]; compound 1.0 µM): 110%
residual activity ([10]; compound 10.0 µM): 89%
residual activity ([11]; compound 1.0 µM): 102%
residual activity ([11]; compound 10.0 µM): 94%
residual activity ([12]; compound 1.0 µM): 91%
residual activity ([12]; compound 10.0 µM): 92%
residual activity ([13]; compound 1.0 µM): 77%
residual activity ([13]; compound 10.0 µM): 93%
residual activity ([14]; compound 1.0 µM): 110%
residual activity ([14]; compound 10.0 µM): 109%
residual activity ([15]; compound 1.0 µM): 96%
residual activity ([15]; compound 10.0 µM): 97%
residual activity ([16]; compound 1.0 µM): 98%
residual activity ([16]; compound 10.0 µM): 110%
residual activity ([17]; compound 1.0 µM): 95%
residual activity ([17]; compound 10.0 µM): 96%
residual activity ([18]; compound 1.0 µM): 103%
residual activity ([18]; compound 10.0 µM): 112%
residual activity ([19]; compound 1.0 µM): 91%
residual activity ([19]; compound 10.0 µM): 90%
residual activity ([20]; compound 1.0 µM): 92%
residual activity ([20]; compound 10.0 µM): 86%
residual activity ([21]; compound 1.0 µM): 95%
residual activity ([21]; compound 10.0 µM): 97%
residual activity ([22]; compound 1.0 µM): 93%
residual activity ([22]; compound 10.0 µM): 99%
residual activity ([23]; compound 1.0 µM): 116%
residual activity ([23]; compound 10.0 µM): 111%
residual activity ([24]; compound 1.0 µM): 98%
residual activity ([24]; compound 10.0 µM): 106%
residual activity ([25]; compound 1.0 µM): 83%
residual activity ([25]; compound 10.0 µM): 81%
residual activity ([26]; compound 1.0 µM): 85%
residual activity ([26]; compound 10.0 µM): 109%
residual activity ([27]; compound 1.0 µM): 99%
residual activity ([27]; compound 10.0 µM): 110%
residual activity ([28]; compound 1.0 µM): 87%
residual activity ([28]; compound 10.0 µM): 96%
residual activity ([29]; compound 1.0 µM): 103%
residual activity ([29]; compound 10.0 µM): 99%
residual activity ([30]; compound 1.0 µM): 96%
residual activity ([30]; compound 10.0 µM): 91%
residual activity ([31]; compound 1.0 µM): 109%
residual activity ([31]; compound 10.0 µM): 109%
SMILES: CN1C(=O)[C@@H](Cc2c[nH]c3ccccc23)NC1=S

residual activity ([1]; compound 1.0 µM): 94%
residual activity ([1]; compound 10.0 µM): 83%
residual activity ([2]; compound 1.0 µM): 107%
residual activity ([2]; compound 10.0 µM): 86%
residual activity ([3]; compound 1.0 µM): 102%
residual activity ([3]; compound 10.0 µM): 118%
residual activity ([4]; compound 1.0 µM): 96%
residual activity ([4]; compound 10.0 µM): 96%
residual activity ([5]; compound 1.0 µM): 89%
residual activity ([5]; compound 10.0 µM): 77%
residual activity ([6]; compound 1.0 µM): 97%
residual activity ([6]; compound 10.0 µM): 91%
residual activity ([7]; compound 1.0 µM): 104%
residual activity ([7]; compound 10.0 µM): 109%
residual activity ([8]; compound 1.0 µM): 104%
residual activity ([8]; compound 10.0 µM): 105%
residual activity ([9]; compound 1.0 µM): 119%
residual activity ([10]; compound 1.0 µM): 101%
residual activity ([10]; compound 10.0 µM): 96%
residual activity ([11]; compound 1.0 µM): 108%
residual activity ([11]; compound 10.0 µM): 94%
residual activity ([12]; compound 1.0 µM): 97%
residual activity ([12]; compound 10.0 µM): 91%
residual activity ([13]; compound 1.0 µM): 93%
residual activity ([13]; compound 10.0 µM): 107%
residual activity ([14]; compound 1.0 µM): 108%
residual activity ([14]; compound 10.0 µM): 107%
residual activity ([15]; compound 1.0 µM): 93%
residual activity ([15]; compound 10.0 µM): 90%
residual activity ([16]; compound 1.0 µM): 119%
residual activity ([16]; compound 10.0 µM): 119%
residual activity ([17]; compound 1.0 µM): 107%
residual activity ([17]; compound 10.0 µM): 89%
residual activity ([18]; compound 1.0 µM): 102%
residual activity ([18]; compound 10.0 µM): 104%
residual activity ([19]; compound 1.0 µM): 94%
residual activity ([19]; compound 10.0 µM): 90%
residual activity ([20]; compound 1.0 µM): 108%
residual activity ([20]; compound 10.0 µM): 103%
residual activity ([21]; compound 1.0 µM): 89%
residual activity ([21]; compound 10.0 µM): 76%
residual activity ([22]; compound 1.0 µM): 99%
residual activity ([22]; compound 10.0 µM): 99%
residual activity ([23]; compound 1.0 µM): 102%
residual activity ([23]; compound 10.0 µM): 97%
residual activity ([24]; compound 1.0 µM): 98%
residual activity ([24]; compound 10.0 µM): 88%
residual activity ([25]; compound 1.0 µM): 112%
residual activity ([25]; compound 10.0 µM): 99%
residual activity ([26]; compound 1.0 µM): 86%
residual activity ([26]; compound 10.0 µM): 91%
residual activity ([27]; compound 1.0 µM): 105%
residual activity ([27]; compound 10.0 µM): 107%
residual activity ([28]; compound 1.0 µM): 111%
residual activity ([28]; compound 10.0 µM): 99%
residual activity ([29]; compound 10.0 µM): 57%
residual activity ([30]; compound 1.0 µM): 112%
residual activity ([30]; compound 10.0 µM): 106%
residual activity ([31]; compound 10.0 µM): 71%
SMILES: O=C(O)c1cc(N=Nc2ccc(S(=O)(=O)Nc3ccccn3)cc2)ccc1O

residual activity ([1]; compound 1.0 µM): 96%
residual activity ([1]; compound 10.0 µM): 63%
residual activity ([4]; compound 1.0 µM): 112%
residual activity ([4]; compound 10.0 µM): 102%
residual activity ([5]; compound 1.0 µM): 119%
residual activity ([5]; compound 10.0 µM): 101%
residual activity ([6]; compound 1.0 µM): 103%
residual activity ([6]; compound 10.0 µM): 97%
residual activity ([7]; compound 1.0 µM): 118%
residual activity ([7]; compound 10.0 µM): 112%
residual activity ([8]; compound 1.0 µM): 98%
residual activity ([8]; compound 10.0 µM): 82%
residual activity ([12]; compound 1.0 µM): 110%
residual activity ([12]; compound 10.0 µM): 107%
residual activity ([13]; compound 1.0 µM): 98%
residual activity ([13]; compound 10.0 µM): 96%
residual activity ([15]; compound 1.0 µM): 117%
residual activity ([15]; compound 10.0 µM): 113%
residual activity ([16]; compound 1.0 µM): 88%
residual activity ([16]; compound 10.0 µM): 76%
residual activity ([17]; compound 1.0 µM): 98%
residual activity ([17]; compound 10.0 µM): 96%
residual activity ([19]; compound 1.0 µM): 103%
residual activity ([19]; compound 10.0 µM): 109%
residual activity ([20]; compound 1.0 µM): 103%
residual activity ([20]; compound 10.0 µM): 96%
residual activity ([21]; compound 1.0 µM): 86%
residual activity ([21]; compound 10.0 µM): 97%
residual activity ([22]; compound 1.0 µM): 113%
residual activity ([22]; compound 10.0 µM): 101%
residual activity ([23]; compound 1.0 µM): 112%
residual activity ([23]; compound 10.0 µM): 81%
residual activity ([25]; compound 1.0 µM): 94%
residual activity ([25]; compound 10.0 µM): 107%
residual activity ([26]; compound 1.0 µM): 108%
residual activity ([26]; compound 10.0 µM): 104%
residual activity ([27]; compound 1.0 µM): 104%
residual activity ([27]; compound 10.0 µM): 104%
residual activity ([30]; compound 1.0 µM): 124%
residual activity ([30]; compound 10.0 µM): 106%
SMILES: Cn1nc(Nc2ccc(F)cc2)c2c(N)ncnc21
